The source of these data is US9321760B2 (Merck Patent GmbH, priority 2011, dated 2016).

In general, pIC50 refers to the IC50 on a negative log10 scale, so that one unit is a factor of ten. A higher pIC50 goes with a small IC50.

This test concerns the target P70S6K (T412E mutant) (Homo sapiens (Human), UniProt P23443, T412E). Kind of test: P70S6K enzyme assay. Conditions: 3 nM P70S6K T412E mutant, 24 μM ATP, 1 μM FITC-AHA-AKRRRLSSLRA-OH substrate peptide, 90 min at 25° C. It counts as biochemical. The procedure, abridged:
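IC50s come from mobility-shift separation of phospho-product from FITC-AHA-AKRRRLSSLRA-OH substrate (1 μM) after the reaction was quenched with 10 mM EDTA. The reaction used 3 nM T412E-mutant enzyme and 24 μM ATP, running 90 min at 25° C in 100 mM Hepes pH 7.5 buffer.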

Structures are written as SMILES. pIC50: −log10 of the molar value.

P70S6K (T412E mutant), sequence (P23443 whole entry T412E): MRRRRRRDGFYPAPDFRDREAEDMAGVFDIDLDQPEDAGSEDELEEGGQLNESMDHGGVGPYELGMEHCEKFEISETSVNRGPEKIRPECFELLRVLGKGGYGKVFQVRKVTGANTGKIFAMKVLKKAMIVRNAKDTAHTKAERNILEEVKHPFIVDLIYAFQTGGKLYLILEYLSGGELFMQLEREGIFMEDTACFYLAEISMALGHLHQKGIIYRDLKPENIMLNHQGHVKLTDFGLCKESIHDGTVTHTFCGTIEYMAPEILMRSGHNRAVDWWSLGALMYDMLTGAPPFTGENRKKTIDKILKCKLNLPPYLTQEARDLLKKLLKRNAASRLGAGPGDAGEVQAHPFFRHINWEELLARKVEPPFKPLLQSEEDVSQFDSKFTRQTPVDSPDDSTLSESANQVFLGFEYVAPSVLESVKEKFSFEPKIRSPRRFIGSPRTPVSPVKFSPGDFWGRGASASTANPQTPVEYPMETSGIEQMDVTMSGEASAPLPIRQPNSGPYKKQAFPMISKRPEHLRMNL

In turn, `Nc1ncnc(N2CCN(C(CN3CCCCC3)c3ccc(F)cc3)CC2)c1Br` (centres unmarked) [Example 72, 5-Bromo-6{4-[1-(4-fluoro-phenyl)-2-piperidin-1-yl-ethyl]-piperazin-1-yl}-pyrimidin-4-ylamine] had a pIC50 of less than 6.00. Turning to `Nc1cc(N2CCN(C(CN3CCCC3)c3cccc(C(F)(F)F)c3)CC2)ncn1` (centres unmarked) [Example 73, 6-{4-[1-(3-trifluoromethyl-phenyl)-2-pyrrolidin-1-yl-ethyl]-piperazin-1-yl}-pyrimidin-4-ylamine], the pIC50 is less than 6.00. On to `NCC(c1ccc(C(F)(F)F)cc1)N1CCN(c2ncnc(N)c2F)CC1` (centres unmarked) [Example 74, 6-{4-[2-Amino-1-(4-trifluoromethyl-phenyl)-ethyl]-piperazin-1-yl}-5-fluoro-pyrimidin-4-ylamine], for which the pIC50 was 6.43. Turning to `Nc1ncnc(N2CCN(C(CN3CCCC3)c3ccc(F)cc3)CC2)c1-c1ccc(F)cc1` (centres unmarked) [Example 75, 5-(4-Fluorophenyl)-6{4-[1-(4-fluorophenyl)-2-pyrrolidin-1-yl-ethyl]-piperazin-1-yl}-pyrimidin-4-ylamine], the pIC50 was 7.82. As for `Nc1cc(N2CCN(C(CN3CCCCC3)c3cccc(F)c3)CC2)ncn1` (centres unmarked) [Example 76, 6-{4-[1-(3-fluorophenyl)-2-piperidin-1-yl-ethyl]-piperazin-1-yl}-pyrimidin-4-ylamine], the figure is less than 6.00. Turning to `Nc1ncnc(N2CCN(C(CN3CCCC3)c3ccc(F)cc3)CC2)c1Br` (centres unmarked) [Example 77, 5-Bromo-6{4-[1-(4-fluorophenyl)-2-pyrrolidin-1-yl-ethyl]-piperazin-1-yl}-pyrimidin-4-ylamine], the pIC50 is 6.19. With `Nc1cc(N2CCN(C(CN3CCCC3)c3ccc(F)cc3)CC2)ncn1` (centres unmarked) [Example 78, 6-{4-[1-(4-fluorophenyl)-2-pyrrolidin-1-yl-ethyl]-piperazin-1-yl}-pyrimidin-4-ylamine], the pIC50 was less than 6.00.

With `Nc1cc(N2CCN(C(CN3CCCCC3)c3ccc(F)cc3)CC2)ncn1` (centres unmarked) [Example 79, 6-{4-[1-(4-fluoro-phenyl)-2-piperidin-1-yl-ethyl]-piperazin-1-yl}-pyrimidin-4-ylamine], the pIC50 is less than 6.00. Turning to `NCC(c1ccc(C(F)(F)F)cc1)N1CCN(c2ncnc(N)c2Cl)CC1` (centres unmarked) [Example 80, 6-{4-[2-Amino-1-(4-trifluoromethyl-phenyl)-ethyl]-piperazin-1-yl}-5-chloro-pyrimidin-4-ylamine], the pIC50 is 7.10. For `Nc1ncnc(N2CCN(C(CN3CCCC3)c3ccc(F)cc3)CC2)c1Cl` (centres unmarked) [Example 81, 5-Chloro-6{4-[1-(4-fluorophenyl)-2-pyrrolidin-1-yl-ethyl]-piperazin-1-yl}-pyrimidin-4-ylamine], the pIC50 was less than 6.00.

In turn, `Nc1ncnc(N2CCN([C@H](CN3CCC3)c3cccc(F)c3)CC2)c1-c1cn[nH]c1` [Example 87, 6-{4-[(S)-2-Azetidin-1-yl-1-(3-fluoro-phenyl)-ethyl]-piperazin-1-yl}-5-(1H-pyrazol-4-yl)-pyrimidin-4-ylamine] gave a pIC50 of 5.06. The figure for `N#Cc1ccc([C@@H](CN2CCC2)N2CCN(c3ncnc(N)c3-c3cn[nH]c3)CC2)cc1` [Example 88, 4-((S)-1-{4-[6-Amino-5-(1H-pyrazol-4-yl)-pyrimidin-4-yl]-piperazin-1-yl}-2-azetidin-1-yl-ethyl)-benzonitrile] is 5.17; for `COC(=O)c1ccc([C@@H](CN2CCC2)N2CCN(c3ncnc(N)c3-c3cn[nH]c3)CC2)cc1` [Example 89, 4-((S)-1-{4-[6-Amino-5-(1H-pyrazol-4-yl)-pyrimidin-4-yl]-piperazin-1-yl}-2-azetidin-1-yl-ethyl)-benzoic acid methyl ester] it is 5.57. `Nc1ncnc(N2CCN(C(CN3CCC3)c3cccc(F)c3)CC2)c1-c1ccc(F)cc1` (centres unmarked) [Example 90, 6-{4-[2-Azetidin-1-yl-1-(3-fluoro-phenyl)-ethyl]-piperazin-1-yl}-5-(4-fluoro-phenyl)-pyrimidin-4-ylamine] showed a pIC50 of 6.22.

Molecule `N#Cc1cccc([C@H](CN2CCC2)N2CCN(c3ncnc(N)c3-c3cn[nH]c3)CC2)c1` [Example 91, 3-((R)-1-{4-[6-Amino-5-(1H-pyrazol-4-yl)-pyrimidin-4-yl]-piperazin-1-yl}-2-azetidin-1-yl-ethyl)-benzonitrile] gave a pIC50 of 5.20.

`COc1ccc(C(CN2CCC2)N2CCN(c3ncnc(N)c3-c3ccc(F)cc3)CC2)cc1F` (centres unmarked) [Example 92, 6-{4-[2-Azetidin-1-yl-1-(3-fluoro-4-methoxy-phenyl)-ethyl]-piperazin-1-yl}-5-(4-fluoro-phenyl)-pyrimidin-4-ylamine] showed a pIC50 of 6.52.

The molecule `CS(=O)(=O)c1ccc([C@H](CN2CCC2)N2CCN(c3ncnc(N)c3-c3cn[nH]c3)CC2)cc1` [Example 93, 6-{4-[(R)-2-Azetidin-1-yl-1-(4-methanesulfonyl-phenyl)-ethyl]-piperazin-1-yl}-5-(1H-pyrazol-4-yl)-pyrimidin-4-ylamine] gave a pIC50 of 5.37. With `Nc1ncnc(N2CCN([C@@H](CN3CCC3)c3ccc4c(c3)OCCO4)CC2)c1-c1ccc(F)cc1` [Example 94, 6-{4-[(R)-2-Azetidin-1-yl-1-(2,3-dihydro-benzo[1,4]dioxin-6-yl)-ethyl]-piperazin-1-yl}-5-(4-fluoro-phenyl)-pyrimidin-4-ylamine], the pIC50 is 5.80. Take `COc1ccc(C(CN2CCC2)N2CCN(c3ncnc(N)c3-c3cn[nH]c3)CC2)cc1F` (centres unmarked) [Example 95, 6-{4-[2-Azetidin-1-yl-1-(3-fluoro-4-methoxy-phenyl)-ethyl]-piperazin-1-yl}-5-(1H-pyrazol-4-yl)-pyrimidin-4-ylamine]: the pIC50 was 5.46. In the case of `COC(=O)c1ccc(C(CN2CCC2)N2CCN(c3ncnc(N)c3-c3ccc(F)cc3)CC2)cc1` (centres unmarked) [Example 96, 4-(1-{4-[6-Amino-5-(4-fluoro-phenyl)-pyrimidin-4-yl]-piperazin-1-yl}-2-azetidin-1-yl-ethyl)-benzoic acid methyl ester], the pIC50 is 6.85. `N#Cc1cccc([C@@H](CN2CCC2)N2CCN(c3ncnc(N)c3-c3cn[nH]c3)CC2)c1` [Example 97, 3-((S)-1-{4-[6-Amino-5-(1H-pyrazol-4-yl)-pyrimidin-4-yl]-piperazin-1-yl}-2-azetidin-1-yl-ethyl)-benzonitrile]: the pIC50 was 5.43. Against the preceding molecule, the pIC50 is 1.42 log units lower. With `Nc1ncnc(N2CCN([C@H](CN3CCC3)c3ccc4c(c3)OCCO4)CC2)c1-c1ccc(F)cc1` [Example 98, 6-{4-[(S)-2-Azetidin-1-yl-1-(2,3-dihydro-benzo[1,4]dioxin-6-yl)-ethyl]-piperazin-1-yl}-5-(4-fluoro-phenyl)-pyrimidin-4-ylamine], the pIC50 is 6.59. The figure for `Nc1ncnc(N2CCN(C(CN3CCC3)c3cccc(C(F)(F)F)c3F)CC2)c1-c1cn[nH]c1` (centres unmarked) [Example 99, 6-{4-[2-Azetidin-1-yl-1-(2-fluoro-3-trifluoromethyl-phenyl)-ethyl]-piperazin-1-yl}-5-(1H-pyrazol-4-yl)-pyrimidin-4-ylamine] is 6.17; for `Cc1ccc(C(CN2CCC2)N2CCN(c3ncnc(N)c3-c3cn[nH]c3)CC2)c(F)c1F` (centres unmarked) [Example 100, 6-{4-[2-Azetidin-1-yl-1-(2,3-difluoro-4-methyl-phenyl)-ethyl]-piperazin-1-yl}-5-(1H-pyrazol-4-yl)-pyrimidin-4-ylamine] it is 6.05; for `Nc1ncnc(N2CCN(C(CN3CCC3)c3ccc(F)c(C(F)(F)F)c3)CC2)c1-c1cn[nH]c1` (centres unmarked) [Example 101, 6-{4-[2-Azetidin-1-yl-1-(4-fluoro-3-trifluoromethyl-phenyl)-ethyl]-piperazin-1-yl}-5-(1H-pyrazol-4-yl)-pyrimidin-4-ylamine] it is 5.42.

On to `Nc1ncnc(N2CCN([C@H](CN3CCC3)c3cccc(F)c3)CC2)c1-c1ccc(F)cc1` [Example 102, 6-{4-[(S)-2-Azetidin-1-yl-1-(3-fluoro-phenyl)-ethyl]-piperazin-1-yl}-5-(4-fluoro-phenyl)-pyrimidin-4-ylamine], for which the pIC50 is 5.85. `Nc1ncnc(N2CCN([C@@H](CN3CCC3)c3cccc(F)c3)CC2)c1-c1ccc(F)cc1` [Example 103, 6-{4-[(R)-2-Azetidin-1-yl-1-(3-fluoro-phenyl)-ethyl]-piperazin-1-yl}-5-(4-fluoro-phenyl)-pyrimidin-4-ylamine] had a pIC50 of 6.04. The figure for `COc1ccc([C@H](CN2CCC2)N2CCN(c3ncnc(N)c3-c3ccc(F)cc3)CC2)cc1F` [Example 104, 6-{4-[(R)-2-Azetidin-1-yl-1-(3-fluoro-4-methoxy-phenyl)-ethyl]-piperazin-1-yl}-5-(4-fluoro-phenyl)-pyrimidin-4-ylamine] is 6.04.

In turn, `COc1ccc([C@@H](CN2CCC2)N2CCN(c3ncnc(N)c3-c3ccc(F)cc3)CC2)cc1F` [Example 105, 6-{4-[(S)-2-Azetidin-1-yl-1-(3-fluoro-4-methoxy-phenyl)-ethyl]-piperazin-1-yl}-5-(4-fluoro-phenyl)-pyrimidin-4-ylamine] gave a pIC50 of 6.19. This pIC50 and that of the molecule before are within 0.2 log units of each other. As to `N#Cc1ccc(C(CN2CCC2)N2CCN(c3ncnc(N)c3-c3ccc(F)cc3)CC2)cc1` (centres unmarked) [Example 106, 4-(1-{4-[6-Amino-5-(4-fluoro-phenyl)-pyrimidin-4-yl]-piperazin-1-yl}-2-azetidin-1-yl-ethyl)-benzonitrile], the pIC50 is 6.49. This pIC50 lies 0.30 log units higher than the previous one. For `Nc1ncnc(N2CCN([C@@H](CN3CCC3)c3ccc4c(c3)OCCO4)CC2)c1-c1cn[nH]c1` [Example 107, 6-{4-[(R)-2-Azetidin-1-yl-1-(2,3-dihydro-benzo[1,4]dioxin-6-yl)-ethyl]-piperazin-1-yl}-5-(1H-pyrazol-4-yl)-pyrimidin-4-ylamine], the pIC50 was 5.28. For the molecule `Nc1ncnc(N2CCN([C@H](CN3CCC3)c3ccc4c(c3)OCCO4)CC2)c1-c1cn[nH]c1` [Example 108, 6-{4-[(S)-2-Azetidin-1-yl-1-(2,3-dihydro-benzo[1,4]dioxin-6-yl)-ethyl]-piperazin-1-yl}-5-(1H-pyrazol-4-yl)-pyrimidin-4-ylamine], the pIC50 was 5.43.
